4 molecules from patent US20150038545A1, “HYDROXYPHENYL PYRROLE COMPOUNDS CONTAINING AN HYDROXAMIC ACID AS HDAC INHIBITORS AND MEDICINAL APPLICATIONS THEREOF” (UNIVERSIDAD DEL PAÍS VASCO, priority 2011, published 2015) can be followed below.

In one test the test system is SW620. The experiment in a line: Cancer cell growth inhibition (CellTiter-Glo), SW620. As to conditions: Homo sapiens, SW-620; Colorectal Cancer, SW620, 72 h treatment. It is filed as cell-based. On the procedure:
(§1) Cell culture-based assays were used to evaluate the ability of compounds of the invention to inhibit cancer cell growth.
(§2) Cells were obtained from the American Type Culture Collection (ATCC). Cells were cultured at 37° C. with 5% CO2 in the appropriate growth medium (see table below), and harvested respectively during the logarithmic growth period and counted with hemocytometer. The cell viability was examined by trypan blue exclusion. Cell concentrations were adjusted to 5.56×10^4 cells/ml with respective medium.
(§3) Stock solutions of test compounds and positive drugs Doxorubicin (Zhejiang, Haizheng, China), Cisplatin (Nanjing Zhiyao, China) and Mitomycin (Zhejiang, Haizheng, China) were prepared in dimethyl sulphoxide (DMSO) or PBS at 20 mM.
(§4) In order to determine the IC50 for each compound, experiments were carried out in 96-well plates and the cell lines seeded at a density of 5,000 cells/well. […] All treatments were performed in triplicate. 10 μl of drug solution was added to each well and incubated for 72 hours. At the end of the incubation, 100 μl of the CellTiter-Glo Reagent were added to each well and the contents were mixed for 2 munites on an orbital shaker to induce cell lysis. The plate was incubated at room temperature for 10 minutes to stabilize luminiscent signal, and luminiscent was recorded. […] In order to calculate IC50 values, dose-responsive curves were fitted using nonlinear regression model with a sigmoidal dose response.
A general note: Cellular ATP, detected with luciferase, serves as a proxy for viable cell number.

Another test concerns A549. The experiment in a line: Cancer cell growth inhibition (CellTiter-Glo), A549. It is filed as cell-based, Human. As to conditions: Homo sapiens; Lung Cancer, A549, 72 h treatment. Here is the method: as §1, §2, §3, §4
Another test relates to NCI-N87. The experiment in a line: Cancer cell growth inhibition (CellTiter-Glo), NCI-N87. As to conditions: Homo sapiens; Gastric Cancer, NCI-N87, 72 h treatment. It is filed as cell-based, Human. On the procedure: as §1, §2, §3, §4
The test system of another test is LoVo. The experiment in a line: Cancer cell growth inhibition (CellTiter-Glo), LoVo. The settings on record: Homo sapiens, Colorectal Cancer, 72 h treatment. It is filed as cell-based, Human. On the procedure:
as §1, §2, §3, §4

Another test has as its system SW480. The experiment in a line: Cancer cell growth inhibition (CellTiter-Glo), SW480. Format: cell-based, Human. The settings on record: Homo sapiens; Colorectal Cancer, SW480, 72 h treatment. Here is the method: as §1, §2, §3, §4
A further test relates to KB. The experiment in a line: Cancer cell growth inhibition (CellTiter-Glo), KB. Format: cell-based, Human. The settings on record: Homo sapiens, Oral Cancer, 72 h treatment. Here is the method:
as §1, §2, §3, §4

The next test deals with BT474. The experiment in a line: Cancer cell growth inhibition (CellTiter-Glo), BT474. It is filed as cell-based. The settings on record: Homo sapiens, BT-474; Breast Cancer, BT474, 72 h treatment. Here is the method: as §1, §2, §3, §4

Each structure is given as a SMILES string.

Broadly, the IC50 is the point on the concentration scale where inhibition reaches its midpoint. Low values mean greater potency in that assay, high ones weaker potency in that assay.

In the case of `O=C(CCCCCNC(=O)c1[nH]c(-c2ccccc2)cc1-c1ccc(O)cc1)NO` [Example 1, N-(6-(hydroxyamino)-6-oxohexyl)-3-(4-hydroxyphenyl)-5-phenyl-1H-pyrrole-2-carboxamide], the IC50 with SW620 is 1.31 µM; with A549, 4.65 µM; in the test with NCI-N87, 1 µM; in the test with LoVo it was 1.4 µM; in the test on SW480, 1.73 µM; in the test on KB, 0.95 µM. This molecule came in with an IC50 with BT474 of 2.71 µM.

As for `O=C(CCCCCNC(=O)c1[nH]c(-c2ccc(O)cc2)cc1-c1ccccc1)NO` [Example 2, N-(6-(hydroxyamino)-6-oxohexyl)-5-(4-hydroxyphenyl)-3-phenyl-1H-pyrrole-2-carboxamide], the IC50 with SW620 came out at 1.48 µM; in the test with A549 it was 8.25 µM; with NCI-N87, 1.24 µM; in the test on LoVo, 2.69 µM; with SW480 it was 2.12 µM; with KB, 2.23 µM. This molecule gave an IC50 in the test with BT474 of 3.49 µM.

For `O=C(CCCCCNC(=O)c1[nH]c(-c2ccc(O)cc2)cc1-c1ccoc1)NO` [Example 5, 3-(3-furyl)-N-(5-(hydroxycarbamoyl)pentyl)-5-(4-hydroxy-phenyl)-1H-pyrrole-2-carboxamide], the IC50 in the test with SW620 amounted to 0.3 µM; with A549 it was 4.35 µM; in the test with NCI-N87, 0.16 µM; with LoVo, 1.08 µM; with SW480 it was 0.48 µM; in the test with KB it was 0.87 µM. In addition, in the test on BT474, the midpoint of inhibition, the IC50, lay at 0.66 µM.

`O=C(CCCCCNC(=O)c1[nH]c(-c2ccc(O)cc2)cc1-c1ccsc1)NO` [Example 6, N-(5-(hydroxycarbamoyl)pentyl)-5-(4-hydroxyphenyl)-3-(3-thienyl)-1H-pyrrole-2-carboxamide]: the IC50 with SW620 stood at 0.67 µM; in the test on A549, 5.39 µM; in the test on NCI-N87 it was 0.48 µM; with LoVo, 1.24 µM; in the test on SW480, 1.08 µM; in the test on KB, 1.45 µM. Besides, half-maximal inhibition with BT474 (IC50) required 1.02 µM.
